The subject of experiment [1] is MMV008149-resistant clones (Dd2 parent; cytochrome bc1 G131S, Y126C, V284L). In words: EC50 assay on MMV008149-resistant lines. It counts as cell-based. Particulars: Plasmodium falciparum, six MMV008149-resistant clones. How it is done: Genomic DNA (gDNA) was isolated from the Dd2 parent and six clones (two clones per resistant selection flask), and samples were prepared for whole-genome sequencing. Samples were sequenced to >60 × coverage using paired end reads and aligned to the 3D7 reference genome and variants were called with HaplotypeCaller (GATK). Comparing the nucleotide variation found in the resistant samples to the Dd2 parent clone, which had been isolated immediately before selections, we identified genomic changes that had presumably occurred during selection. Following this comparison, 19 mutations were identified: 11 SNVs and eight insertion/deletions (INDELs) (Table 2, Supplementary Data 2). INDEL mutations were comprised of intergenic (three), codon INDEL (three), intronic (one) and frame-shift (one) mutations. […] Comparing all six clones, one gene was mutated across all samples: cytochrome bc1. […]
Alternatively, a SYBR Green-based proliferation approach was used for the 72-h assay, as previously described. […] Following incubation, 10 × SYBR Green I (Invitrogen; supplied in 10,000 × concentration) in lysis buffer ([…], 5 mM EDTA, 0.16% Saponin wt per vol and 1.6% Triton X vol per vol) was added to the wells and the plates were incubated overnight at room temperature before plate reading. […]

For experiment [2], the system named is resistant parasites generated by MMV007564. Description: Cross-resistance to parasites selected with MMV007564. It counts as cell-based, Plasmodium falciparum. An excerpt:
While we found an overall lack of pre-existing resistance, analysing the onset of resistance was critical, as compounds resulting in rapid resistance are not ideal for clinical development. We therefore sought to create drug-resistant parasites using a variety of different selection methods. We implemented either a high-dose method or a ramp-up/pulse method for our in vitro selections. Two of the 50 compounds—MMV028895 and MMV665824—were removed from the selection study during experimentation. […] Out of the remaining 48 compounds, resistant parasites were obtained for 23 (Supplementary Data 1). As each selection was performed in triplicate with three independent cultures, we succeeded in generating a total of 66 resistant cultures. Parasites resistant to MMV026596 were not obtained despite 100 days of selection, but the cultures acquired hypersensitivity to mefloquine with a 10-fold reduction in EC50 compared with its parental line, 3D7. For the remaining 24 compounds, acquisition of resistant parasites was unsuccessful despite numerous attempts over an extensive period of time.

From publication PMC4912613, “A broad analysis of resistance development in the malaria parasite” (Nature Communications, 2016) come the findings set out here.

One may read the EC50 as the midpoint of the concentration-response curve.

As for `Cc1c(C)n(Cc2ccc(F)cc2)c2ccc(C(=O)NCc3ccco3)cc12` [MMV008149], the EC50 in experiment [1] is 1.67 to 10.1 µM. Regarding `CN(C)CCCN(C)C(=O)C1Cc2cc(-c3ccccc3)ccc2N1S(=O)(=O)c1ccccc1` (centres unmarked) [MMV028895], the “cross-resistance to resistant parasites generated by MMV007564” value in experiment [2] was “exhibited cross-resistance”.
